From paper PMC12622802, “Potent kinase inhibitors from the Merck KGaA OGHL: Novel hits against Trypanosoma brucei with potential for repurposing” (PLOS Neglected Tropical Diseases, 2025)
Read-outs that look alike come from different tables or passages of the source.

How the values were obtained:
[1] = tested on: bloodstream forms of T. b. brucei; test: Trypanosome killing kinetics (time-kill assay); format: cell-based, Trypanosoma brucei brucei; details: for activity profile in time-kill assay (trypanocidal or cytostatic): 8IC50, 4IC50, IC50, 0.25IC50, over 72 hours
Experimental: (§1) To evaluate the killing kinetics of selected compounds, bloodstream forms of T. b. brucei (2 x 10⁵ cells/mL) were incubated in normal culture conditions in the presence of compounds at 8IC50, 4IC50, IC50, and 0.25IC50 concentrations in 24-well plates. Upon incubation, cultures were centrifuged at 0, 4, 8, 12, 24, 30, 36, 48, 60, and 72 hours’ time intervals at 2,500 rpm followed by motile trypanosomes enumeration using a Lumascope LS520 inverted microscope. To determine the mode of inhibition (parasitostatic or parasiticidal), a rescue experiment was conducted. Trypanosomes were exposed to the test doses (8IC50, 4IC50, IC50, and 0.25IC50) of the compounds for 4 hours. They were then washed three times with phosphate buffer saline (DPBS 1X), centrifuged at 2,500 rpm for 7 minutes, and resuspended in complete drug-free medium. These parasites were cultured under the same conditions, and motile organisms were enumerated with the Neubauer chamber at regular intervals over 72 hours. Data were plotted using GraphPad Prism 8.0 to determine the inhibition kinetics and classify the inhibitors as cidal or static. Pentamidine isethionate served as the reference compound and experiments were performed in duplicate.

[2] = tested on: bloodstream forms of T. b. brucei Lister 427; test: Resazurin reduction growth inhibition assay against bloodstream forms of T. b. brucei; format: cell-based, Trypanosoma brucei brucei; details: read-out: IC50 ± SD (µM) T. b. b.
Experimental: Bloodstream forms of T. b. brucei Lister 427, a virulent laboratory strain of Trypanosoma brucei were cultured in HMI-9 medium as previously described. […] The resulting signal measured between 570 nm and 590 nm, is directly proportional to the quantity of viable parasites. […] After incubation, a working solution of resazurin (0.15 mg/mL in DPBS) was added to the plates in a 1:10 (v/v) ratio, followed by incubation for 4 hours at 37 °C with 5% CO2. Fluorescence was measured using an Infinite M200 microplate reader (Tecan) at excitation and emission wavelengths of 530 nm and 590 nm, respectively. Compound achieving ≥ 50% inhibition of trypanosomes were selected for further dose-response studies.
Compounds that adhered to the cutoff criterion (≥ 50% inhibition) were serially diluted and tested for their half-maximal inhibitory concentrations (IC50). […] Dose-response curves were generated using GraphPad Prism software (version 8.0). […]
Data were analysed using Microsoft Excel and GraphPad Prism 8.0. Nonlinear regression with a sigmoidal dose-response fit model was applied to the data to determine IC50 and CC50 values.

[3] = Cytotoxicity, resazurin reduction assay, HepG2; format: cell-based, human; details: human
Experimental: (§2) Vero E6 (African green monkey kidney), Raw264.7 (murine macrophages) and HepG2 (human hepatocyte carcinoma) cell lines, sourced from the American Type Culture Collection, were cultured in DMEM supplemented with 10% (v/v) heat-inactivated fetal bovine serum, 1% (v/v) non-essential amino acids, and 1% (v/v) penicillin-streptomycin. Cells were maintained at 37 °C in a 5% CO2 atmosphere. For cytotoxicity testing, they were seeded (90 µL) in 96-well plates at a density of 1x10^4 cells/well, in duplicate, and allowed to adhere overnight. Serial dilutions (50-0.08 µM) of the compounds were prepared, and 10 µL of each were incubated with the monolayer for 48 hours. Podophyllotoxin was tested as a positive control at 10 μM and 0.5% DMSO (100% cell viability) was used as negative control. Cell viability was then assessed using the resazurin reduction assay, as described above. The 50% cytotoxic concentration (CC50) was calculated using GraphPad Prism software (version 8.0), and selectivity indices (SIs) were determined by dividing the […].
(§3) Data were analysed using Microsoft Excel and GraphPad Prism 8.0. Nonlinear regression with a sigmoidal dose-response fit model was applied to the data to determine IC50 and CC50 values. Results represent the mean ± standard deviation (SD) from two independent experiments performed in duplicate.

[4] = tested on: HepG2 (human hepatocyte carcinoma) cells; test: Cytotoxicity, resazurin reduction assay, HepG2; format: cell-based
Experimental: as §2, §3

[5] = Cytotoxicity, resazurin reduction assay, Raw264.7; format: cell-based, murine; details: mouse
Experimental: (§4) For cytotoxicity testing, they were seeded (90 µL) in 96-well plates at a density of 1x10^4 cells/well, in duplicate, and allowed to adhere overnight. […] Cell viability was then assessed using the resazurin reduction assay, as described above. […] Data were analysed using Microsoft Excel and GraphPad Prism 8.0. Nonlinear regression with a sigmoidal dose-response fit model was applied to the data to determine IC50 and CC50 values. Results represent the mean ± standard deviation (SD) from two independent experiments performed in duplicate.

[6] = Cytotoxicity, resazurin reduction assay, Vero; format: cell-based; details: African green monkey
Experimental: as §4

[7] = biological target: leucine-rich repeat kinase 2 (LRRK2); design: method as in ref 31 = [31]; 31 Garcia-Echeverria C , Kanazawa T , Kawahara E , Masuya K , Matsuura N , Miyake T . 2, 4-pyrimidinediamines useful in the treatment of neoplastic diseases, inflammatory and immune system disorders .; details: cited from earlier work
[8] = tested on: bloodstream forms of T. b. brucei; test: Rescue experiment (4 h exposure, washout, drug-free medium); format: cell-based, Trypanosoma brucei brucei; details: 72 hours monitoring, 4xIC50 and 8xIC50
Experimental: as §1

[9] = biological target: focal adhesion kinase (FAK); design: method as in ref 31 = [31]; 31 Garcia-Echeverria C , Kanazawa T , Kawahara E , Masuya K , Matsuura N , Miyake T . 2, 4-pyrimidinediamines useful in the treatment of neoplastic diseases, inflammatory and immune system disorders .; details: cited from earlier work
[10] = biological target: anaplastic lymphoma kinase (ALK); design: method as in ref 31 = [31]; 31 Garcia-Echeverria C , Kanazawa T , Kawahara E , Masuya K , Matsuura N , Miyake T . 2, 4-pyrimidinediamines useful in the treatment of neoplastic diseases, inflammatory and immune system disorders .; details: cited from earlier work
[11] = tested on: insulin-like growth factor 1 (IGF-1R); design: method as in ref 31 = [31]; 31 Garcia-Echeverria C , Kanazawa T , Kawahara E , Masuya K , Matsuura N , Miyake T . 2, 4-pyrimidinediamines useful in the treatment of neoplastic diseases, inflammatory and immune system disorders .; details: cited from earlier work
[12] = Trypanosoma brucei, 72 h, primary screen, DMSO stock solution, bloodstream form T. b. brucei Lister 427, 72 hours
[13] = primary screen, DMSO stock solution, bloodstream form T. b. brucei Lister 427, 72 hours

Structure (SMILES) | IC50 [2, 12] [µM] | CC50 at 48 h [3] [µM] | IC50 [2, 13] [µM] | CC50 [4] [µM] | other results
N=C(N)c1ccc(OCCCCCOc2ccc(C(=N)N)cc2)cc1 [Pentamidine isethionate, reference compound] | – | – | – | – | activity profile in time-kill assay (trypanocidal or cytostatic) [1]: complete and sustained parasite clearance across all tested concentrations; time of exposure to parasite killing / growth arrest ([1]; time-kill assay): ≤ 24 h
COc1ccc(OCC(N)=O)cc1-c1cn2cc(C(=O)NCCc3c(OC)cccc3OC)sc2n1 [OGHL00241] | 2.28 ± 0.04 | 9.259 ± 0.019 | – | – | –
CCC(C)[S+]([O-])c1ccc(-c2nc3ccncc3[nH]2)c(OC)c1 (stereo not drawn) [OGHL00019] | – | – | 2.49 ± 0.1 | 19.8 ± 2.72 | –
COc1ccc(OC)c(CCNC(=O)c2cn3cc(-c4cc(OC)ccc4OC)nc3s2)c1 [OGHL00225] | 9.86 ± 0.0007 | > 50 | – | – | –
CCOc1cc(CCNC(=O)C[C@H]2S[C@@H](c3ccc(C#Cc4ccccc4)cc3)N(c3cccc(C(N)=O)c3)C2=O)ccc1OC [OGHL00152] | 8.87 ± 0.7 | – | – | – | –
CCOc1cc(CCNC(=O)C[C@H]2S[C@@H](c3ccc(C#Cc4ccccc4)cc3)N(c3cccc(C(N)=O)c3)C2=O)ccc1O [OGHL00183] | 9.64 ± 0.05 | 50 | – | – | –
COc1cc(OC)c(CCNC(=O)c2cn3cc(-c4cc(OCC#N)ccc4OC)nc3s2)c(OC)c1 [OGHL00238] | 2.67 ± 0.7 | 2.01 ± 0.46 | – | – | –
CCN=C(c1ccc(OC)c(OC)c1)N1CCCc2cc(C3=NNC(=O)SC3C)ccc21 (stereo not drawn) [OGHL00032] | – | 48.43 ± 0.25 | – | – | IC50 ([2]; Trypanosoma brucei, 72 h): 5.04 ± 0.16 µM
COc1nc(/C=C/c2nc3n(n2)CCC[C@@H]3c2ccccc2C(F)(F)F)ccc1-n1cnc(C)c1 [OGHL00211] | 2.37 ± 0.22 | 5.94 ± 2.55 | – | – | –
COc1ccc(C(=O)N2CCC(C)(C)c3cc(C4=NNC(=O)SC4C)ccc32)cc1OC (stereo not drawn) [OGHL00025] | 9.22 ± 0.0007 | 33.3 ± 2.83 | – | – | –
COc1cc(OC)c(CCNC(=O)c2cn3cc(-c4cc(OC)ccc4OC)nc3s2)c(OC)c1 [OGHL00227] | 2.8 ± 0.08 | > 50 | – | – | fold increase in selectivity ([4]; relative to the analogue of the same series named in the sentence): 3.5 fold
CCCc1nn(C)c2c(=O)[nH]c(-c3cc(C(=O)N=C(N)N)ccc3OCC)nc12 [OGHL00103] | – | – | 7.8 ± 0.07 | 41.5 ± 3.4 | –
COc1nc(/C=C/c2nc3n(n2)CCCC3c2ccccc2C(F)(F)F)ccc1-n1cnc(C)c1 (stereo not drawn) [OGHL00208] | 7.53 ± 1.27 | 2.36 ± 0.52 | – | – | –
COc1cc(C(=O)N(C)C)ccc1-c1cc2nccc(-c3ccc4ccncc4c3)c2o1 [OGHL00250] | – | – | 2.15 ± 0.2 | > 50 | –
COc1cc([C@@H]2c3cc4c(cc3[C@H](O)[C@H]3COC(=O)[C@H]23)OCO4)cc(OC)c1OC [Podophyllotoxin, reference compound] | – | – | – | – | CC50 at 48 h ([5]; confirmation screen, powdered form, 48 hours, read-out: CC50 ± SD (µM) Raw): 0.016 ± 0.002 µM; CC50 at 48 h ([6]; confirmation screen, powdered form, 48 hours, read-out: CC50 ± SD (µM) Vero): 0.08 ± 0.005 µM; CC50 at 48 h ([3]; primary screen, DMSO stock solution, 48 hours, read-out: CC50 ± SD (µM) HepG2): 0.031 ± 0.009 µM
CNS(=O)(=O)c1ccccc1Nc1nc(Nc2cc(OC)c(OC)cc2C)ncc1Br [OGHL00133, 2-((5-bromo-2-((4,5-dimethoxy-2-methylphenyl)amino)pyrimidin-4-yl)amino)-N-methylbenzenesulfonamide] | – | > 50 | – | – | IC50 [7]: 0.00013 µM; effect after short exposure and washout (reversible or irreversible) [8]: reversible inhibitory effect; CC50 at 48 h [5]: 4.5 ± 0.1 µM; IC50 [9]: 0.0028 µM; IC50 [10]: 0.03 µM; activity profile in time-kill assay (trypanocidal or cytostatic) [1]: cytostatic activity; IC50 [11]: < 0.08 µM; IC50 ([2]; Trypanosoma brucei, 72 h, confirmation screen, powdered form, 72 hours): 0.007 ± 0.00073 µM; CC50 at 48 h [6]: 1.01 ± 0.09 µM
Oc1ccc2[nH]cc(CCCCN3CC=C(c4ccccc4)CC3)c2c1 [OGHL00007] | – | – | 5.3 ± 0.7 | > 50 | –
CNS(=O)(=O)c1ccccc1Nc1nc(Nc2ccc(N3CCOCC3)cc2OC)ncc1Br [OGHL00134] | 1.3 | 22.1 ± 5.06 | 1.31 ± 0.22 | – | –
Cc1ccccc1-c1ccc(-c2nc(-c3ccc(CN(C)CCC(=O)O)c(F)c3)no2)cc1OCC1CC1 [OGHL00165] | – | – | 8.83 ± 0.09 | > 50 | –
COc1cccc(CNc2nnc(-c3c[nH]c4ncccc34)o2)c1 [OGHL00138] | – | – | 1.55 ± 0.2 | 23.1 ± 3.57 | –
COc1cc(OC)c(CCNC(=O)c2ccc3nc(-c4cc(OC)ccc4OC)cn3c2)c(OC)c1 [OGHL00231] | 9 | > 50 | 9.06 ± 0.13 | – | –
COc1ccc(OCCCO)cc1-c1cn2cc(-c3nnc(NCCCCc4ccccc4)o3)ccc2n1 [OGHL00236] | – | – | 6.19 ± 0.4 | 9.07 ± 0.94 | –
CNC(=O)c1cc(Oc2ccc(NC(=O)Nc3cc(C(F)(F)F)ccc3-n3ccnc3)cc2)ccn1 [OGHL00130] | 3 | 12.9 ± 0.5 | 3.05 ± 0.14 | – | –
CN(CCCCc1ccc(F)cc1)CCC(=O)c1ccc2[nH]c(=O)oc2c1 [OGHL00087] | – | – | 8.62 ± 0.093 | 27.3 ± 4.5 | –
